Read-outs that look alike come from different tables or passages of the source.
What was measured:
S. saprophyticus 662 = test: checkerboard titration, gemifloxacin and amoxicillin (MIC, FIC); format: cell-based, Staphylococcus saprophyticus
Method: The concentration range tested varied for each drug/organism combination to encompass the MIC endpoints of the individual components. […] The last well (H) in column 12 was used as a positive growth control well, containing only medium and test isolate.
The bacteria were diluted to a 0.5 McFarland standard and then further diluted 1/50. Each well was inoculated with 25 μl of the isolate to give a final inoculum density of approximately 5×10^5 cfu/ml. […] After inoculation, the plates were covered with a 96 well microtitre plate lid and incubated at 35° C. in ambient air for 20–24 hours. A 10 μl aliquot of the inoculum was plated on trypticase soy agar containing 5% sheep blood to determine the purity of the final test inoculum.
2) S. saprophyticus 662 was obtained from the SmithKline Beecham Anti-Infectives Research Culture Collection and stored at −80° C. in 10% glycerol. Before testing, the isolate was passaged onto agar plates (trypticase soy agar containing 5% sheeps blood) from the frozen stock for two consecutive days. Cation adjusted Mueller Hinton broth (BBL, Cockeysville, Md.) was used for the isolate.
The combined effect of gemifloxacin and amoxicillin was investigated in S. saprophyticus 662 by using the checkerboard titration method described in Example 1.

E. coli ATCC 25922 = test: checkerboard titration, gemifloxacin and cefaclor (MIC, FIC); format: cell-based, Escherichia coli
Method: (§1) Checkerboard microtitre broth dilution plates were prepared using the Hamilton MicroLab AT Plus system (Reno, Nev.). Two-fold serial dilutions (50 μl) of cefotaxime were made in columns 1 through 11 of a microtitre plate. Two-fold serial dilutions of gemifloxacin were prepared manually and the MicroLab AT Plus was used to dispense 25 μl of gemifloxacin at each concentration into rows A through G of the microtitre plate. The concentration range tested varied for each drug/organism combination to encompass the MIC endpoints of the individual components. Column 12 contained two fold serial dilutions of gemifloxacin only, and row H contained two fold serial dilutions of cefotaxie only. The last well (H) in column 12 was used as a positive growth control well, containing only medium and test isolate.
(§2) The bacteria were diluted to a 0.5 McFarland standard and then further diluted 1/50. Each well was inoculated with 25 μl of the isolate to give a final inoculum density of approximately 5×10^5 cfu/ml. The MicroLab AT Plus 2 was used to add the inoculum to the microtitre plates. After inoculation, the plates were covered with a 96 well microtitre plate lid and incubated at 35° C. in ambient air for 20–24 hours. A 10 μl aliquot of the inoculum was plated on trypticase soy agar containing 5% sheep blood to determine the purity of the final test inoculum.
(§3) Following incubation, a microtitre mirror reader (Cooke Instruments Ltd., England) was used to assist in determining the microdilution MIC endpoints. The MIC was determined as the lowest concentration of compound that inhibited visible growth of the organism.
(§4) The Fractional Inhibitory Concentrations (FICs) were calculated using the following formula: (A)/(MICA)+(B)/(MICB)=FICA+FICB=FICIndex wherein: • A is the MIC of drug A in the presence of drug B • B is the MIC of drug B in the presence of drug A • MIC A is the MIC of the organism to drug A alone • MIC B is the MIC of the organism to drug B alone • FIC A is the fractional inhibitory concentration of drug A • FIC B is the fractional inhibitory concentration of drug B
(§5) The FIC indices were interpreted using the following criteria: • ≦0.5=Synergy • >0.5–1=Additive • >1–2=Indifference • >2=Antagonism
3) E. coli ATCC 25922 was obtained from the SmithKline Beecham Anti-Infectives Research Culture Collection and stored at −80° C. in 10% glycerol. Before testing, the isolate was passaged onto agar plates (trypticase soy agar containing 5% sheeps blood) from the frozen stock for two consecutive days. […]
The combined effect of gemifloxacin and cefaclor was investigated in E. coli ATCC 25922 by using the checkerboard titration method described in Example 1. FIC Indices were calculated and interpreted as in Example 1.

E. faecalis ATCC 29212 = test: checkerboard titration, gemifloxacin and cefotaxime (MIC, FIC); format: cell-based, Enterococcus faecalis
Method: 1) The combined effect of gemifloxacin and cefotaxime was investigated in E. faecalis by using a checkerboard titration method. Evaluation for synergistic activity was carried out by calculation of fractional inhibitory concentrations (FICs) according to the method of Eliopoulos et al (1996, Antimicrobial Combinations, Antibiotics in Laboratory Medicine, Victor Lorian, 4th Edition, pp 337–338, Baltimore, Md., Williams and Wilkins).
E. faecalis ATCC 29212 was obtained from the SmithKline Beecham Anti-Infectives Research Culture Collection and stored at −80° C. in 10% glycerol. Before testing, the isolate was passaged onto agar plates (trypticase soy agar containing 5% sheeps blood) from the frozen stock for two consecutive days. Cation adjusted Mueller Hinton broth (BBL, Cockeysville, Md.) was used for the isolate.
as §1, §2, §3, §4, §5

[1] = test system: clinically isolated P. aeruginosa strains; test: checkerboard method, gemifloxacin or ciprofloxacin with ceftazidime, 6 clinical isolates (Example 5); format: cell-based, Pseudomonas aeruginosa; settings: for FICB: FIC of ceftazidime; for MIC: Pseudomonas aeruginosa
Method: (§6) Minimal inhibitory concentrations (MICs) for each separate drug were determined. For wells along the growth-no growth interface, synergy was determined by calculating the Fractional Inhibitory Concentration (FIC) index. The Fractional Inhibitory Concentration (FIC) indices were calculated using the following formula: FICindex=FICA+FICB=[A]/MICA+[B]/MICB • Wherein: • FICA(or B), is the FIC of drug A (or B) MICA (or B) is the MIC of the organism to drug A (or B) • A (or B) is concentration of drug A (or B) that is the lowest inhibitory concentration
(§7) The FIC indices were interpreted using the following criteria: • ≦0.5=Synergy • >0.5–1.0=Additive • >1.0–4.0=Indifference • >4.0=Antagonism
(§8) The test organisms were clinical isolates collected in Korea. Organisms were frozen at −70 C. prior to testing. […] Gemifloxacin or ciprofloxacin solution was dispensed alone in the first row and combined with ceftazidime in the remaining rows. Ceftazidime as also dispensed alone in the first row in the first column. Test strains of P. aeruginosa were grown for 18 h in Mueller-Hinton broth, and then these overnight cultures were diluted with the same fresh medium to the density of approximately 10^7 CFU/mL. The bacterial concentrations were determined by measuring optical density or turbidity of the suspension and were verified by standard colony counts on antibiotic-free agar plates. A diluted bacterial solution was applied to 96-well plates containing serially diluted antimicrobial agents to yield 5×10^5 CFU/mL. Plates were incubated at 35 C for 18 hours.
MICs for each separate drug were determined, and for wells along the growth-no growth interface, synergy was determined by calculating FIC Indices as in Example 4. FIC Indices were calculated and interpreted as in Example 4.

[2] = test system: clinically isolated P. aeruginosa; test: checkerboard titration, gemifloxacin or ciprofloxacin with ceftazidime, 27 clinical isolates (Example 4); format: cell-based, Pseudomonas aeruginosa; settings: for FICB: FIC of ceftazidime; for MIC: Pseudomonas aeruginosa
Method: as §8, with “C” for “C.”, “testing. Testing was done by the checkerboard method in 96-well plates using Mueller-Hinton broth.” for “testing.”, “Ceftazidime” for “Gemifloxacin or ciprofloxacin solution”, “was” for “was dispensed alone in the first row and combined with ceftazidime in the remaining rows. Ceftazidime as”, “10^4 CFU per spot.” for “5×10^5 CFU/mL.”, “aerobically overnight.” for “at 35 C for 18 hours.”
as §6, §7

[3] = drug alone, no unit in this line (other lines μg/ml)

CC1(C)S[C@@H]2[C@H](NC(=O)[C@H](N)c3ccc(O)cc3)C(=O)N2[C@H]1C(=O)O [amoxicillin] showed an MIC (S. saprophyticus 662; Staphylococcus saprophyticus, 662, in presence of gemifloxacin 0.004 μg/ml, read-out: amoxicillin MIC) of 0.125 µg/mL.
In the case of N[C@@H](C(=O)N[C@@H]1C(=O)N2C(C(=O)O)=C(Cl)CS[C@H]12)c1ccccc1 [cefaclor], the MIC (E. coli ATCC 25922; Escherichia coli, ATCC25922, in presence of gemifloxacin 0.002 μg/ml, read-out: cefaclor MIC) is reported as 1 µg/mL and the “cefaclor MIC” value (E. coli ATCC 25922; [3]) is reported as 4.
In the case of CO/N=C(\C(=O)N[C@@H]1C(=O)N2C(C(=O)O)=C(COC(C)=O)CS[C@H]12)c1csc(N)n1 [cefotaxime], the MIC (E. faecalis ATCC 29212; Enterococcus faecalis, ATCC29212, in presence of gemifloxacin 0.008 μg/ml, read-out: cefotaxime MIC) is reported as 16 µg/mL, the “cefotaxime MIC” value (E. faecalis ATCC 29212; [3]) is reported as 256 and the “amoxicillin MIC” value (S. saprophyticus 662; [3]) is reported as 0.5.
In the case of CC(C)(O/N=C(\C(=O)N[C@@H]1C(=O)N2C(C(=O)[O-])=C(C[n+]3ccccc3)CS[C@H]12)c1csc(N)n1)C(=O)O [ceftazidime], the FICB ([1]; P. aeruginosa 6140) is reported as 0.25, the FICB ([1]; P. aeruginosa 6168) is reported as 0.06 and the FICB ([1]; P. aeruginosa P003) is reported as 0.06. For the same molecule, the MIC ([1]; P. aeruginosa 6140, drug alone, read-out: ceftazidime MIC) was 32 µg/mL, the MIC ([1]; P. aeruginosa 6140, in combination with gemifloxacin, read-out: Cceftazidime MIC) was 8 µg/mL and the MIC ([1]; P. aeruginosa 6168, drug alone, read-out: ceftazidime MIC) was 32 µg/mL. For the same molecule, the MIC ([1]; P. aeruginosa 6168, in combination with gemifloxacin, read-out: Cceftazidime MIC) was 2 µg/mL, the MIC ([1]; P. aeruginosa P003, drug alone, read-out: ceftazidime MIC) was 32 µg/mL and the MIC ([1]; P. aeruginosa P003, in combination with gemifloxacin, read-out: Cceftazidime MIC) was 2 µg/mL. The FICB ([2]; P. aeruginosa 6003) was 0.25, the FICB ([2]; P. aeruginosa 6021) was 0.25 and the FICB ([2]; P. aeruginosa 6030) was 0.25. The FICB ([2]; P. aeruginosa 6045) was 0.13, the FICB ([2]; P. aeruginosa 6047) was 0.03 and the FICB ([2]; P. aeruginosa 6113) was 0.25. It also gave an FICB ([2]; P. aeruginosa 6123) of 0.25, an FICB ([2]; P. aeruginosa 6173) of 0.25 and an FICB ([2]; P. aeruginosa P032) of 0.25. For the same molecule, the FICB ([2]; P. aeruginosa P036) was 0.13, the FICB ([2]; P. aeruginosa P039) was 0.25 and the MIC ([2]; P. aeruginosa 6003, drug alone, read-out: ceftazidime MIC) was 4 µg/mL. For the same molecule, the MIC ([2]; P. aeruginosa 6003, in combination with gemifloxacin, read-out: Cceftazidime MIC) was 1 µg/mL, the MIC ([2]; P. aeruginosa 6021, drug alone, read-out: ceftazidime MIC) was 4 µg/mL and the MIC ([2]; P. aeruginosa 6021, in combination with gemifloxacin, read-out: Cceftazidime MIC) was 1 µg/mL. It also gave an MIC ([2]; P. aeruginosa 6030, drug alone, read-out: ceftazidime MIC) of 4 µg/mL, an MIC ([2]; P. aeruginosa 6030, in combination with gemifloxacin, read-out: Cceftazidime MIC) of 1 µg/mL and an MIC ([2]; P. aeruginosa 6045, drug alone, read-out: ceftazidime MIC) of 64 µg/mL. For the same molecule, the MIC ([2]; P. aeruginosa 6045, in combination with gemifloxacin, read-out: Cceftazidime MIC) was 8 µg/mL, the MIC ([2]; P. aeruginosa 6047, drug alone, read-out: ceftazidime MIC) was 64 µg/mL and the MIC ([2]; P. aeruginosa 6047, in combination with gemifloxacin, read-out: Cceftazidime MIC) was 2 µg/mL. The MIC ([2]; P. aeruginosa 6113, drug alone, read-out: ceftazidime MIC) was 8 µg/mL, the MIC ([2]; P. aeruginosa 6113, in combination with gemifloxacin, read-out: Cceftazidime MIC) was 2 µg/mL and the MIC ([2]; P. aeruginosa 6123, drug alone, read-out: ceftazidime MIC) was 4 µg/mL. For the same molecule, the MIC ([2]; P. aeruginosa 6123, in combination with gemifloxacin, read-out: Cceftazidime MIC) was 1 µg/mL, the MIC ([2]; P. aeruginosa 6173, drug alone, read-out: ceftazidime MIC) was 4 µg/mL and the MIC ([2]; P. aeruginosa 6173, in combination with gemifloxacin, read-out: Cceftazidime MIC) was 1 µg/mL. The MIC ([2]; P. aeruginosa P032, drug alone, read-out: ceftazidime MIC) was 4 µg/mL, the MIC ([2]; P. aeruginosa P032, in combination with gemifloxacin, read-out: Cceftazidime MIC) was 1 µg/mL and the MIC ([2]; P. aeruginosa P036, drug alone, read-out: ceftazidime MIC) was 32 µg/mL. It also gave an MIC ([2]; P. aeruginosa P036, in combination with gemifloxacin, read-out: Cceftazidime MIC) of 4 µg/mL, an MIC ([2]; P. aeruginosa P039, drug alone, read-out: ceftazidime MIC) of 8 µg/mL and an MIC ([2]; P. aeruginosa P039, in combination with gemifloxacin, read-out: Cceftazidime MIC) of 2 µg/mL.
